This assay has as its target T1, Human Cav2.2 channels (Homo sapiens, UniProt Q00975).
T1 construct: expressed in transfected cells
Briefly: Fluorescent assay for Cav2.2 channels using potassium depolarization to initiate channel opening. Type of assay: cell-based. The settings on record: for inhibition at 10 µM: read-out: Cav 2.2 Activity % Inh at 10 μM; for inhibition at 30 µM: read-out: Cav 2.2 Activity % Inh at 30 μM; for IC50: 30 mM K (block of open and inactivated channels), read-out: Cav 2.2 Activity IC50 at 30 mM K. In short, it runs like this:
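HEK293 cells stably expressing human Cav2.2 with alpha2-delta and beta subunits plus Kir2.3, dye-loaded, then held 30 min at 25° C. in 4, 12, 25 or 30 mM K+ pre-polarization buffer with compound.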

T1 sequence (Q00975 whole entry): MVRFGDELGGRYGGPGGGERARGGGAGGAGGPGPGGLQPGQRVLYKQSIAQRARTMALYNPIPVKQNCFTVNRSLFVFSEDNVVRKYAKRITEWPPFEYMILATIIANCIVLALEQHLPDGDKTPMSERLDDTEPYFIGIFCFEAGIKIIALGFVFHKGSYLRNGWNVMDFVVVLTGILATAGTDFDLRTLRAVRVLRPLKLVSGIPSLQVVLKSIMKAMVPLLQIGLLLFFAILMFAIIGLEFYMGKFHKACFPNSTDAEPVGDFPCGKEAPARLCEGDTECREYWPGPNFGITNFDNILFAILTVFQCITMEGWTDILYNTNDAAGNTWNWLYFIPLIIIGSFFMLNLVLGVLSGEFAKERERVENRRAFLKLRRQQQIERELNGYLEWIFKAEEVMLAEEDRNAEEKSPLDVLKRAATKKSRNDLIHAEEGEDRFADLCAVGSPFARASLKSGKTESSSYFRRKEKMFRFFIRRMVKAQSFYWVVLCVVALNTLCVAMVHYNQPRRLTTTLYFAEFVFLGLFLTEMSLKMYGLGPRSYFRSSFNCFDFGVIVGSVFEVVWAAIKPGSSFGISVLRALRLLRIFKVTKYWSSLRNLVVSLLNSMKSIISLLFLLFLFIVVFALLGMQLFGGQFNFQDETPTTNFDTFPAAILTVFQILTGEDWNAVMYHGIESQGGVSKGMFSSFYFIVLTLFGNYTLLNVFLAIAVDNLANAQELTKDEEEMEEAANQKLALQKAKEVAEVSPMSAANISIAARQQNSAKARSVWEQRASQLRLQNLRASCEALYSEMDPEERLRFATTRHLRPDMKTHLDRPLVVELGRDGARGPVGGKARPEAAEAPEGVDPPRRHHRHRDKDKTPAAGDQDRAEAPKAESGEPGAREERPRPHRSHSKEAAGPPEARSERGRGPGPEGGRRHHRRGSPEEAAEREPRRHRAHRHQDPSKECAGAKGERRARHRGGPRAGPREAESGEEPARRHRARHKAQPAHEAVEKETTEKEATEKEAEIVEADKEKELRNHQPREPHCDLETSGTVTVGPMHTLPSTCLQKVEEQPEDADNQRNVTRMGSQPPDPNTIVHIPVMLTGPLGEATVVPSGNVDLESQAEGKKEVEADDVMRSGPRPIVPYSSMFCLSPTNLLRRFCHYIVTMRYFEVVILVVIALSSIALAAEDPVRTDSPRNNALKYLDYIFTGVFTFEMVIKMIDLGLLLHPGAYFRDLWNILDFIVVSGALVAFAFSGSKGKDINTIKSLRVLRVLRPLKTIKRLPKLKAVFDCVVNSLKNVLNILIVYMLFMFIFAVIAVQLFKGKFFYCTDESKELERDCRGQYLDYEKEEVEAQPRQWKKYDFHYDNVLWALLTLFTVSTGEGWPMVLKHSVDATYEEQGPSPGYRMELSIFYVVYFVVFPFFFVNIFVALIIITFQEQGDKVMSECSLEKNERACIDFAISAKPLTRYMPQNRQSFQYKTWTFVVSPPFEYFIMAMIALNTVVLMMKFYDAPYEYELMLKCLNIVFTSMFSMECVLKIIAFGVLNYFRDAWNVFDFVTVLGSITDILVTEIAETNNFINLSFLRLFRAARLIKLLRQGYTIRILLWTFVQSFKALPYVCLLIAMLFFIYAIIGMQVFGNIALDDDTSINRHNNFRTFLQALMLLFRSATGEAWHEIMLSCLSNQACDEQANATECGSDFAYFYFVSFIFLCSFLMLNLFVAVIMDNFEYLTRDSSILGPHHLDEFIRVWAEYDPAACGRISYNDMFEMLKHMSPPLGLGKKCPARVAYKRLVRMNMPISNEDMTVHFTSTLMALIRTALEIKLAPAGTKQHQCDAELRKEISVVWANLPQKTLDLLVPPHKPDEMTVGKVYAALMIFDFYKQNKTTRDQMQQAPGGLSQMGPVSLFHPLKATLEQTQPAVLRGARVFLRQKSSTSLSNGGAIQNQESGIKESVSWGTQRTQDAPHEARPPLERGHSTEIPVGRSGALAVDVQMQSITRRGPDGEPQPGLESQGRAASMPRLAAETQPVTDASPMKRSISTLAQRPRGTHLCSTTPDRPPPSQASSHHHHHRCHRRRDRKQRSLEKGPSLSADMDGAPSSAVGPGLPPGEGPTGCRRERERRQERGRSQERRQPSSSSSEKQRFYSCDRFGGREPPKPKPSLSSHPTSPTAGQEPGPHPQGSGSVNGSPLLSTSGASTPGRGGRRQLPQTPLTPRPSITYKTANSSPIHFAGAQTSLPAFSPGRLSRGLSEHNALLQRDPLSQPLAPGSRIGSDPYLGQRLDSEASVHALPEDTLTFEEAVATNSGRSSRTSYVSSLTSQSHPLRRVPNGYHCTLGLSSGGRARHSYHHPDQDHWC
T1 sequence (P54289 25-1103 partner): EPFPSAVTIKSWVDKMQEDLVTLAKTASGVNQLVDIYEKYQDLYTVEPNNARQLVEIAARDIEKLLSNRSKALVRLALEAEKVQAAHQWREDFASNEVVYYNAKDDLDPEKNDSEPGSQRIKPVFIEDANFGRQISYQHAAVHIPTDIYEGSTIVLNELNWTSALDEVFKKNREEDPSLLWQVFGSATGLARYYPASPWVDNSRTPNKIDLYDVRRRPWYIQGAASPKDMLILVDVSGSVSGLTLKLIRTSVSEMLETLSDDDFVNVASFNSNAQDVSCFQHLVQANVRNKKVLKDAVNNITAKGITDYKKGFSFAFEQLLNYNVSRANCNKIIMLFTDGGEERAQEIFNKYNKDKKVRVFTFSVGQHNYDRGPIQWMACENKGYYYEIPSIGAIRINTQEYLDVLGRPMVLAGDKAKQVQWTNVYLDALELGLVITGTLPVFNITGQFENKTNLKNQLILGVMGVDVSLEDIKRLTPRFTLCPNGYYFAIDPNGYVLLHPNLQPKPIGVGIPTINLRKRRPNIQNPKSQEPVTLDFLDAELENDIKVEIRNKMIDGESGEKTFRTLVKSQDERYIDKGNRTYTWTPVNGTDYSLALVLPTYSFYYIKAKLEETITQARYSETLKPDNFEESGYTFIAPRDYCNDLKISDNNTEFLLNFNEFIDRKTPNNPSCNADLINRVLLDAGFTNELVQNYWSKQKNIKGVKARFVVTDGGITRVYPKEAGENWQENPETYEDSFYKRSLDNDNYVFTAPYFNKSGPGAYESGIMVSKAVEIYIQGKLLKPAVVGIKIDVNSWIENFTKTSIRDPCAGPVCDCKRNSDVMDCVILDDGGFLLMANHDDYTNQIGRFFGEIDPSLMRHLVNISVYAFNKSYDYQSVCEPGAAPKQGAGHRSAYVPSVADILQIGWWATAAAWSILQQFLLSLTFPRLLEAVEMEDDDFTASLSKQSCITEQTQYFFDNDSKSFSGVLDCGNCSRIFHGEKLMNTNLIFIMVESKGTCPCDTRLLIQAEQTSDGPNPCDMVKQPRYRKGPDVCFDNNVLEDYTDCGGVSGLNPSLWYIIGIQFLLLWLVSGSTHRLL
T1 sequence (P54284 whole entry partner): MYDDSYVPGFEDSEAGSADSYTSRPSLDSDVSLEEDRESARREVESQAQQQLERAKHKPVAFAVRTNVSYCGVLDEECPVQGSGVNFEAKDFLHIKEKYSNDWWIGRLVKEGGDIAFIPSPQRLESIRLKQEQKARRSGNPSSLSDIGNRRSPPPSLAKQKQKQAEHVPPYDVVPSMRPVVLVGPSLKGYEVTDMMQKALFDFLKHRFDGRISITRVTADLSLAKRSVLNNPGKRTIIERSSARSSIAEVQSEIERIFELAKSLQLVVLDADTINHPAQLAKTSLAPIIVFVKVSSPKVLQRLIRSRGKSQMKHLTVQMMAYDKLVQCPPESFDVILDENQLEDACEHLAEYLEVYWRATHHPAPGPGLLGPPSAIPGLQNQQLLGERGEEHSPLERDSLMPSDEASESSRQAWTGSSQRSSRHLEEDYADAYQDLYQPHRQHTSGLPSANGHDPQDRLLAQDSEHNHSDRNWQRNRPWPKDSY

As a reminder, the IC50 is the concentration at which inhibition is half-maximal. As for `CC(C)(C)c1cc(C(=O)NC2(C(=O)NCc3ccccn3)CCCCC2)cc(C(C)(C)C)c1` [Compound 47, 3,5-di-tert-butyl-N-(1-(pyridin-2-ylmethylcarbamoyl)cyclohexyl)benzamide], the IC50 amounted to 35.6 nM. Moreover, the inhibition at 10 µM (10 μM compound) worked out at 93.7%. In addition, where the note is “30 μM compound”, the inhibition at 30 µM came to 95.3%.
For the compound `CC(C)(C#N)c1ccc(C(=O)NC2(C(=O)NCc3ccccc3)CCCCC2)cc1` [Compound 122, N-(1-(benzylcarbamoyl)cyclohexyl)-4-(2-cyanopropan-2-yl)benzamide], the inhibition at 10 µM (10 μM compound) turned out to be 45.2%. Also, the inhibition at 30 µM (30 μM compound) turned out to be 80.5%.
As to `CC(C)(C)c1cc(C(=O)NC2(C(=O)N3CCOCC3)CCCC2)cc(C(C)(C)C)n1` [Compound 94, 2,6-di-tert-butyl-N-(1-(morpholine-4-carbonyl)cyclopentyl)isonicotinamide], the IC50 stood at 329 nM. For the same compound, the inhibition at 10 µM (10 μM compound) was 96.6%. In addition, under “30 μM compound”, the inhibition at 30 µM was 87.2%.
For the compound “1-(2,6-di-tert-butylisonicotinimidamido)-N-((5-methylisoxazol-3-yl)methyl)cyclopentanecarboxamide [Compound 90]”, the IC50 turned out to be 77.2 nM. Moreover, the “Cav 2.2 Activity % Inh at 10 μM” value (10 μM compound) worked out at 90.95%. Also, the “Cav 2.2 Activity % Inh at 30 μM” value (30 μM compound) was determined as 98.53%.
For the compound `COc1c(C(C)(C)C)cc(CNC2(C(=O)NCc3ccccc3)CCCCC2)cc1C(C)(C)C` [Compound 72, N-benzyl-1-(3,5-di-tert-butyl-4-methoxybenzylamino)cyclohexanecarboxamide], the IC50 is 145 nM. Also, for the setting “10 μM compound”, the inhibition at 10 µM was determined as 97.8%. In addition, the inhibition at 30 µM (30 μM compound) is 97.4%.
`CC(C)(C)c1cc(C(=O)NC2(C(=O)NCc3ccc(S(C)(=O)=O)cc3)CCOCC2)cc(C(C)(C)C)c1O` [Compound 14, 4-(3,5-di-tert-butyl-4-hydroxybenzamido)-N-(4-(methylsulfonyl)benzyl)tetrahydro-2H-pyran-4-carboxamide]: for the setting “10 μM compound”, the inhibition at 10 µM is 80.7%. Also, under “30 μM compound”, the inhibition at 30 µM came to 81.9%.
Regarding `CC(C)(C#N)c1cc(C(=O)NC2(C(=O)NCc3ccccc3)CCCCC2)cc(C(C)(C)C#N)c1` [Compound 41, N-(1-(benzylcarbamoyl)cyclohexyl)-3,5-bis(2-cyanopropan-2-yl)benzamide], the half-maximal inhibitory concentration (IC50) came to 985 nM. Further, for the setting “10 μM compound”, the inhibition at 10 µM was determined as 76%. Besides, the inhibition at 30 µM (30 μM compound) came to 73.3%.
In the case of `CN(C)c1cccc(CNC(=O)C2(NC(=O)c3cc(C(C)(C)C)nc(C(C)(C)C)c3)CCOCC2)c1` [Compound 25, 2,6-di-tert-butyl-N-(4-(3-(dimethylamino)benzylcarbamoyl)tetrahydro-2H-pyran-4-yl)isonicotinamide], the IC50 stood at 87.4 nM. Besides, the inhibition at 10 µM (10 μM compound) stood at 70.5%.
For the compound `CN1CCN(C(=O)C2(NC(=O)c3cc(C(C)(C)C)nc(C(C)(C)C)c3)CCCC2)CC1` [Compound 93, 2,6-di-tert-butyl-N-(1-(4-methylpiperazine-1-carbonyl)cyclopentyl)isonicotinamide], the IC50 worked out at 856 nM. Further, the inhibition at 10 µM (10 μM compound) is 83.9%. Besides, the inhibition at 30 µM (30 μM compound) was 85.5%.
On the same counts, the results for `CC(C)(C)c1cc(C(=O)NC2(C(=O)NCc3ccc(S(C)(=O)=O)cc3)CCCCC2)cc(C(C)(C)C)c1O` [Compound 112, 3,5-di-tert-butyl-4-hydroxy-N-(1-(4-(methylsulfonyl)benzylcarbamoyl)cyclohexyl)benzamide] are 138 nM, 96.7% and 102%.
On the same counts, the results for `COc1ccc(CNC(=O)C2(NC(=O)c3cc(C(C)(C)C)nc(C(C)(C)C)c3)CCCC2)cc1` [Compound 89, 2,6-di-tert-butyl-N-(1-(4-methoxybenzylcarbamoyl)cyclopentyl)isonicotinamide] are 54.6 nM, 90.8% and 100%.
On the same counts, the results for `Cc1cnc(CNC(=O)C2(NC(=O)c3cc(C(C)(C)C)nc(C(C)(C)C)c3)CCCCC2)cn1` [Compound 81, 2,6-di-tert-butyl-N-(1-((5-methylpyrazin-2-yl)methylcarbamoyl)cyclohexyl)isonicotinamide] are 53.5 nM, 87.8% and 93.3%.
On to `CC(C)(C)c1cc(C(=O)NC2(C(=O)NCc3nccs3)CC2)cc(C(C)(C)C)c1O` [Compound 1, 3,5-di-tert-butyl-4-hydroxy-N-(1-(thiazol-2-ylmethylcarbamoyl)cyclopropyl)benzamide], for which the IC50 was 1210 nM. For the same compound, where the note is “10 μM compound”, the inhibition at 10 µM is 95.2%. Further, the inhibition at 30 µM (30 μM compound) stood at 104%.
Take `CC(C)(C#N)c1ccc(C(=O)NC2(C(=O)NCc3cccc(C(F)(F)F)c3)Cc3ccccc3C2)cc1` [Compound 55, 2-(4-(2-cyanopropan-2-yl)benzamido)-N-(3-(trifluoromethyl)benzyl)-2,3-dihydro-1H-indene-2-carboxamide]: for the setting “10 μM compound”, the inhibition at 10 µM was determined as 89%. For the same compound, under “30 μM compound”, the inhibition at 30 µM worked out at 100%.
Consider `CC(C)(C)c1cc(C(=O)NC2(C(=O)NCc3cccnc3)CCCCC2)cc(C(C)(C)C)c1` [Compound 103, 3,5-di-tert-butyl-N-(1-(pyridin-3-ylmethylcarbamoyl)cyclohexyl)benzamide], for which the half-inhibitory concentration (IC50) was found to be 65.3 nM.
Consider `CC(C)(C)c1cc(C(=O)NC2(C(=O)NCc3nccs3)CC2)cc(C(C)(C)C)n1` [Compound 10, 2,6-di-tert-butyl-N-(1-(thiazol-2-ylmethylcarbamoyl)cyclopropyl)isonicotinamide], for which the half-inhibitory concentration (IC50) was 184 nM. Besides, the inhibition at 10 µM (10 μM compound) worked out at 95.7%. The inhibition at 30 µM (30 μM compound) turned out to be 101%.
On the same counts, the results for `CC(C)(C)c1cc(C(=O)NC2(C(=O)NCc3ccccc3)CCCCC2)cc(C(C)(C)C)c1O` [Compound 65, N-(1-(benzylcarbamoyl)cyclohexyl)-3,5-di-tert-butyl-4-hydroxybenzamide] are 123 nM, 104% and 107%.
`COc1c(C(C)(C)C)cc(C(=O)NC2(C(=O)NCCCN3CCOCC3)CCCCC2)cc1C(C)(C)C` [Compound 105, 3,5-di-tert-butyl-4-methoxy-N-(1-(3-morpholinopropylcarbamoyl)cyclohexyl)benzamide]: the IC50 came to 704 nM.
Turning to `COc1ccc(CNC(=O)C2(NC(=O)c3cc(C(C)(C)C)cc(C(C)(C)C)c3)CCCCC2)cc1` [Compound 45, 3,5-di-tert-butyl-N-(1-(4-methoxybenzylcarbamoyl)cyclohexyl)benzamide], the IC50 turned out to be 25.2 nM. Further, for the setting “10 μM compound”, the inhibition at 10 µM stood at 95.7%. Where the note is “30 μM compound”, the inhibition at 30 µM came to 99.5%.
On the same counts, the results for `CNC(=O)C1(NC(=O)c2cc(C(C)(C)C)c(OC)c(C(C)(C)C)c2)CCCCC1` [Compound 28, 3,5-di-tert-butyl-4-methoxy-N-(1-(methylcarbamoyl)cyclohexyl)benzamide] are 69.3 nM, 82.6% and 89.4%.
As to `CC(C)(C#N)c1cc(C(=O)NC2(C(=O)NCc3cccc(C(F)(F)F)c3)CCCCC2)cc(C(C)(C)C#N)c1` [Compound 40, 3,5-bis(2-cyanopropan-2-yl)-N-(1-(3-(trifluoromethyl)benzylcarbamoyl)cyclohexyl)benzamide], the half-inhibitory concentration (IC50) was determined as 367 nM. In addition, where the note is “10 μM compound”, the inhibition at 10 µM was 80%. In addition, the inhibition at 30 µM (30 μM compound) was 77.6%.
Turning to `CC(C)(C)OC(=O)N1CCC(NC(=O)c2cc(C(C)(C)C)nc(C(C)(C)C)c2)(C(=O)NCc2ccccc2)CC1` [Compound 59, tert-butyl 4-(benzylcarbamoyl)-4-(2,6-di-tert-butylisonicotinamido)piperidine-1-carboxylate], where the note is “10 μM compound”, the inhibition at 10 µM amounted to 50.2%. Also, the inhibition at 30 µM (30 μM compound) stood at 62.5%.
As for `CC(C)(C)c1cc(CNC2(C(=O)NCc3cccc(C(F)(F)F)c3)CCCCC2)cc(C(C)(C)C)c1` [Compound 60, 1-(3,5-di-tert-butylbenzylamino)-N-(3-(trifluoromethyl)benzyl)cyclohexanecarboxamide], the inhibition at 10 µM (10 μM compound) is 74.8%. Besides, the inhibition at 30 µM (30 μM compound) is 85.8%.
Consider `CC(C)(C)c1cc(C(=O)NC2(C(=O)NCc3ccncc3)CCCCC2)cc(C(C)(C)C)n1` [Compound 100, 2,6-di-tert-butyl-N-(1-(pyridin-4-ylmethylcarbamoyl)cyclohexyl)isonicotinamide], for which the IC50 amounted to 154 nM.
On to `CC(C)(C)OC(=O)N1CCC(NC(=O)c2cc(C(C)(C)C)nc(C(C)(C)C)c2)(C(=O)O)CC1` [Compound 58, 1-(tert-butoxycarbonyl)-4-(2,6-di-tert-butylisonicotinamido)piperidine-4-carboxylic acid], for which the inhibition at 10 µM (10 μM compound) was 37.6%. Also, under “30 μM compound”, the inhibition at 30 µM worked out at 77.9%.
On to `CNC(=O)C1(NC(=O)c2cc(C(C)(C)C)cc(C(C)(C)C)c2)CCCCC1` [Compound 35, 3,5-di-tert-butyl-N-(1-(methylcarbamoyl)cyclohexyl)benzamide], for which the IC50 is 1260 nM. Besides, the inhibition at 10 µM (10 μM compound) was determined as 92.5%. Moreover, for the setting “30 μM compound”, the inhibition at 30 µM came to 98.6%.
The like results for `COc1c(C(C)(C)C)cc(C(=O)NC2(C(=O)NCc3ccccc3)CCCCC2)cc1C(C)(C)C` [Compound 32, N-(1-(benzylcarbamoyl)cyclohexyl)-3,5-di-tert-butyl-4-methoxybenzamide] were, in that order, 5.6 nM, 88.8% and 98%.
The like results for `COc1c(C(C)(C)C)cc(C(=O)NC2(C(=O)NCc3cc(C)n(C)n3)CCCCC2)cc1C(C)(C)C` [Compound 85, 3,5-di-tert-butyl-N-(1-((1,5-dimethyl-1H-pyrazol-3-yl)methylcarbamoyl)cyclohexyl)-4-methoxybenzamide] were, in that order, 26.7 nM, 87.7% and 93.2%.

The values above are taken from patent US20090270394A1, “CYCLYLAMINE DERIVATIVES AS CALCIUM CHANNEL BLOCKERS” (priority 2008, published 2009).
